According to patent US20100112048A1, “Dosage Regimen and Medicament For Reducing Risk of Onset or Progression of Dementia by Administration of Specific Vitamins and Nsaid” (priority 2006, published 2010):

Assays:
[1] = tested on: mortality of 39,876 healthy participants; details: cited from earlier work
[2] = tested on: mortality of elderly Cache County participants; details: in vivo
Experimental: Also, to examine the effect of these constituents on differential mortality, logistic regression was used to estimate the relative risk of mortality over the course of follow-up among the 5 user groups. These analyses, were controlled for age, sex, education, and APOE genotype status. All analyses were performed using SAS statistical software package version 8.0.
Also, an analysis was effected to assess whether there was an increased risk of mortality among any of the user groups that might potentially bias the observed associations with cognitive performance over time.

[3] = tested on: mortality of the elderly; details: placebo-controlled trial in the elderly; cited from earlier work

vitamin E
cardiovascular mortality (in words) ([1]; healthy women): trend toward decreased cardiovascular mortality
mortality vs placebo (in words) ([1]; monitored for over 10 years): no significant difference in mortality
harm of vitamin E, subgroup analysis (in words) [2]: may only be harmful among elderly with prior cardiovascular disease
mortality associated with using vitamin E (in words) [3]: did not note any increased mortality
